Consider 16 molecules from patent US9079878B2, “(4-phenylimidazol-2-yl) ethylamine derivatives useful as sodium channel modulators” (Pfizer Limited, priority 2011, dated 2015).

SMILES strings stand for the structures.

This assay deals with T1, hNav1.8 (Homo sapiens, UniProt Q9Y5Y9).
T1 construct: host or cells: HEK cells, stably transfected
The experiment in a line: hNav1.8 whole-cell patch-clamp electrophysiology in HEK cells (conventional or PatchXpress 7000). Particulars: estimated IC50 calculated from single point % inhibition; HEK cells stably transfected with hNav1.8; 20 msec step to 0 mV after 8 second prepulse to V1/2; average of replicates; read-out: NaV1.8 EIC50. The class given is cell-based. From the text:
The ability of the imidazole derivatives of the formula (I) to inhibit the NaV1.8 channel may be measured using the assay described below.
HEK cells stably transfected with hNav1.8, purchased from Millipore (Millipore Corp., Billerica, Mass. 01821), were maintained according to manufacturer's instructions. For electrophysiological studies, cells were removed from the culture flask by brief trypsinization and re-plated at low density onto glass cover slips. Cells were typically used for electrophysiological experiments within 24 to 72 h after plating.
Cover slips containing HEK cells expressing hNav1.8 were placed in a bath on the stage of an inverted microscope and perfused (approximately 1 mL/min) with extracellular solution of the following composition: 138 mM NaCl, 2 mM CaCl2, 5.4 mM KCl, 1 mM MgCl2, 10 mM glucose, and 10 mM HEPES, pH 7.4, with NaOH. […] The osmolarity of the extracellular and intracellular solutions was 300 mOsm/kg and 295 mOsm/kg, respectively. All recordings were made at room temperature (22-24° C.) using AXOPATCH 200B amplifiers and PCLAMP software (Axon Instruments, Burlingame, Calif.).
hNav1.8 currents in HEK cells were measured using the whole-cell configuration of the patch-clamp technique (Hamill et al., 1981). Uncompensated series resistance was typically 2 to 5 mega ohms and >85% series resistance compensation was routinely achieved. […] Current records were acquired at 20 to 50 KHz and filtered at 5 to 10 KHz.
HEK cells stably transfected with hNav1.8 were viewed under Hoffman contrast optics and placed in front of an array of flow pipes emitting either control or compound-containing extracellular solutions. All compounds were dissolved in dimethyl sulfoxide to make 10 mM stock solutions, which were then diluted into extracellular solution to attain the final concentrations desired.
The voltage-dependence of inactivation was determined by applying a series of depolarizing prepulses (8 sec long in 10 mV increments) from a negative holding potential. The voltage was then immediately stepped to 0 mV to assess the magnitude of the sodium current. Currents elicited at 0 mV were plotted as a function of prepulse potential to allow estimation of the voltage at which 50% of the channels were inactivated (midpoint of inactivation or V1/2). Compounds were tested for their ability to inhibit hNav1.8 sodium channels by activating the channel with a 20 msec voltage step to 0 mV following an 8 second conditioning prepulse to the empirically determined V1/2. Compound effect (% inhibition) was determined by difference in current amplitude before and after application of test compounds. For ease of comparison, “estimated IC-50” values were calculated from single point electrophysiology data by the following equation, (tested concentration, uM)×(100−% inhibition/% inhibition). Inhibition values <20% and >80% were excluded from the calculation.
In some cases electrophysiological assays were conducted with PatchXpress 7000 hardware and associated software (Molecular Devices Corp). All assay buffers and solutions were identical to those used in conventional whole-cell voltage clamp experiments described above. hNav1.8 cells were grown as above to 50%-80% confluency and harvested by trypsinization. Trypsinized cells were washed and resuspended in extracellular buffer at a concentration of 1×10^6 cells/mL. The onboard liquid handling facility of the PatchXpress was used for dispensing cells and application of test compounds. Determination of the voltage midpoint of inactivation was as described for conventional whole-cell recordings. Cells were then voltage-clamped to the empirically determined V1/2 and current was activated by a 20 msec voltage step to 0 mV.

T1 sequence (Q9Y5Y9 whole entry): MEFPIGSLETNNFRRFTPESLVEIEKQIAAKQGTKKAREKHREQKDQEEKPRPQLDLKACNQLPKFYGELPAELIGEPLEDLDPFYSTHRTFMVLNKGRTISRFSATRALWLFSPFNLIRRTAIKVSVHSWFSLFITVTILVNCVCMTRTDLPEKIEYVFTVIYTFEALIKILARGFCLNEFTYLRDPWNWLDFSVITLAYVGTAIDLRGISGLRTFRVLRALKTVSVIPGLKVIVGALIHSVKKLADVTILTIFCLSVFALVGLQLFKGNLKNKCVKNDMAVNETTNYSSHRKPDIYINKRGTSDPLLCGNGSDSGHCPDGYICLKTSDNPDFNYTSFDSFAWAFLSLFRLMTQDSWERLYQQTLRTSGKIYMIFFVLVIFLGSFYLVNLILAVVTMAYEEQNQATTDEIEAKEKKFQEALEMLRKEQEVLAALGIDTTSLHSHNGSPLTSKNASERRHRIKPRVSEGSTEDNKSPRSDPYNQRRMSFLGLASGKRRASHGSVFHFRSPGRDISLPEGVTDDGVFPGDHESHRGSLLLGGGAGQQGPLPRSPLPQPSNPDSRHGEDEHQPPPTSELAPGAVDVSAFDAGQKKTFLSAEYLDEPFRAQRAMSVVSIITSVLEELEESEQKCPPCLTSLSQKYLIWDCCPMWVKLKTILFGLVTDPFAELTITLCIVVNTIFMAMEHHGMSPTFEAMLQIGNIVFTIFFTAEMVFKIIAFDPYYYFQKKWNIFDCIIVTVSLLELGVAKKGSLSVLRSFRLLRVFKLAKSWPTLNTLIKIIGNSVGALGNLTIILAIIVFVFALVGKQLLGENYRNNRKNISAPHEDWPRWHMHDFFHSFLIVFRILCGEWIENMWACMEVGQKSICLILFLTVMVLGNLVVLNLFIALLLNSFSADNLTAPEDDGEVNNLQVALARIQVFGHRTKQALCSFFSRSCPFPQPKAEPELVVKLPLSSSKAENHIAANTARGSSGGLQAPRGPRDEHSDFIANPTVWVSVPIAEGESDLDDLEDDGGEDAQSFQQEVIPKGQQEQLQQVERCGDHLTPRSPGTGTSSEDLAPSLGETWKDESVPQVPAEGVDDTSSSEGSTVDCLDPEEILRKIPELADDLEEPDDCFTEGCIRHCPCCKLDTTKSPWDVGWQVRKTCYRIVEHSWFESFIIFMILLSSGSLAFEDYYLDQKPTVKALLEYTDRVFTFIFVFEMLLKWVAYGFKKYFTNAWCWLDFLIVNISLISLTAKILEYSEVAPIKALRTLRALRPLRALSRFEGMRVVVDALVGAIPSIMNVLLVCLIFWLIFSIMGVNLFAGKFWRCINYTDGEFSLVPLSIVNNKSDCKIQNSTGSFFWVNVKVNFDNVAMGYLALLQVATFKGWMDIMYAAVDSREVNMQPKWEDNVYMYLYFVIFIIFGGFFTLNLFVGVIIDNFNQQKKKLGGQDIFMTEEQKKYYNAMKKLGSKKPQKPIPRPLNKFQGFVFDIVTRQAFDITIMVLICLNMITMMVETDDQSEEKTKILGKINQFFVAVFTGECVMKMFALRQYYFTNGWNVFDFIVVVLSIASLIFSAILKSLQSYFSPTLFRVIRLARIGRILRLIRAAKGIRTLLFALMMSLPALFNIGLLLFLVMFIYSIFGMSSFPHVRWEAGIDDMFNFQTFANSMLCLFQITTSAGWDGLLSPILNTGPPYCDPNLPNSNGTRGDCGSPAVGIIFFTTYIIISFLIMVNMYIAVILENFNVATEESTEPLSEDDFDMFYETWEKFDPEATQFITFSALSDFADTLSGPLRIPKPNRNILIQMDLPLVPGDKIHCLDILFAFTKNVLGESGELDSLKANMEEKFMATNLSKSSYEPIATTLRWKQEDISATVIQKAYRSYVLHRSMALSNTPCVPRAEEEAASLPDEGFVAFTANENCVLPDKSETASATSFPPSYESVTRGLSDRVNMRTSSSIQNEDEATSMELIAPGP

Consider `CC(c1nc(-c2ccc(OC(F)(F)F)cc2)c[nH]1)C1(N)COC1` (racemic) [Example 9, 3-(1-{4-[4-(Trifluoromethoxy)phenyl]-1H-imidazol-2-yl}ethyl)oxetan-3-amine], for which the IC50 was 26 nM.

Consider `CC(c1nc(-c2ccc(C(F)(F)F)cc2)c[nH]1)C1(N)COC1` (racemic) [Example 12, 3-(1-{4-[4-(Trifluoromethyl)phenyl]-1H-imidazol-2-yl}ethyl)oxetan-3-amine], for which the IC50 is 9.7 nM.

`CCC(c1nc(-c2ccc(OC(F)(F)F)cc2)c[nH]1)C1(N)COC1` (racemic) [Example 15, 3-(1-{4-[4-(Trifluoromethoxy)phenyl]-1H-imidazol-2-yl}propyl)oxetan-3-amine]: the IC50 was 11 nM.

On to `C[C@H](c1nc(-c2ccc(OC(F)(F)F)cc2)c[nH]1)C1(N)COC1` (single isomer, unassigned) [Example 10], for which the IC50 was 3.3 nM.

On to `C[C@@H](c1nc(-c2ccc(OC(F)(F)F)cc2)c[nH]1)C1(N)COC1` (single isomer, unassigned) [Example 11], for which the IC50 was 9 nM.

Turning to `C[C@H](c1nc(-c2ccc(C(F)(F)F)cc2)c[nH]1)C1(N)COC1` (single isomer, unassigned) [Example 13], the IC50 is 7.8 nM.

As for `C[C@@H](c1nc(-c2ccc(C(F)(F)F)cc2)c[nH]1)C1(N)COC1` (single isomer, unassigned) [Example 14], the IC50 was 51 nM.

For `CC[C@H](c1nc(-c2ccc(OC(F)(F)F)cc2)c[nH]1)C1(N)COC1` (single isomer, unassigned) [Example 16], the IC50 is 32 nM.

Regarding `CC[C@@H](c1nc(-c2ccc(OC(F)(F)F)cc2)c[nH]1)C1(N)COC1` (single isomer, unassigned) [Example 17], the IC50 is 75 nM.

As for `NC1(Cc2nc(-c3ccc(OC(F)(F)F)cc3)c[nH]2)CCCOC1` (stereo not shown) [Example 1, 3-({4-[4-(Trifluoromethoxy)phenyl]-1H-imidazol-2-yl}methyl)tetrahydro-2H-pyran-3-amine], the IC50 was 190 nM.

On to `Cc1cc(-c2c[nH]c(CC3(N)COC3)n2)ccc1Cl` [Example 2, 3-{[4-(4-Chloro-3-methylphenyl)-1H-imidazol-2-yl]methyl}oxetan-3-amine], for which the IC50 is 360 nM.

For the molecule `NC1(Cc2nc(-c3ccc(OC(F)(F)F)cc3)c[nH]2)CCOC1` (stereo not shown) [Example 3, 3-({4-[4-(Trifluoromethoxy)phenyl]-1H-imidazol-2-yl}methyl)tetrahydrofuran-3-amine], the IC50 was 260 nM.

In the case of `NC1(Cc2nc(-c3ccc(C(F)(F)F)cc3)c[nH]2)COC1` [Example 4, 3-({4-[4-(Trifluoromethyl)phenyl]-1H-imidazol-2-yl}methyl)oxetan-3-amine], the IC50 was 360 nM.

For `NC1(Cc2nc(-c3ccc(OC(F)F)cc3)c[nH]2)COC1` [Example 5, 3-({4-[4-(Difluoromethoxy)phenyl]-1H-imidazol-2-yl}methyl)oxetan-3-amine], the IC50 was 480 nM.

Regarding `NC1(Cc2nc(-c3ccc(S(F)(F)(F)(F)F)cc3)c[nH]2)COC1` [Example 6, 3-({4-[4-(Pentafluoro-λ^6-sulfanyl)phenyl]-1H-imidazol-2-yl}methyl)oxetan-3-amine], the IC50 is 920 nM.

Take `NC1(Cc2nc(-c3ccc(OC(F)(F)F)cc3)c[nH]2)CCOCC1` [Example 7, 4-({4-[4-(Trifluoromethoxy)phenyl]-1H-imidazol-2-yl}methyl)tetrahydro-2H-pyran-4-amine]: the IC50 was 400 nM.
